Test results as given in patent US7507860B2 (Pfizer Inc., priority 2004, dated 2009).
Residue numbers refer to the chain shown, from its start. Like-named read-outs stand apart in the source and are kept apart here.

Tests used:
[1] = biological target: T1, human androgen receptor (hAR) (Homo sapiens, UniProt P10275); assay: Competitive binding analysis on baculovirus/Sf9 generated hAR extracts with 3H-DHT tracer; settings: hAR extract, 1 nM 3H-DHT, one hour at 4° C, mean of multiple tests
T1 construct: made in house; host or cells: baculovirus/Sf9 insect cells (crude extract)
T1 sequence (P10275 1-920): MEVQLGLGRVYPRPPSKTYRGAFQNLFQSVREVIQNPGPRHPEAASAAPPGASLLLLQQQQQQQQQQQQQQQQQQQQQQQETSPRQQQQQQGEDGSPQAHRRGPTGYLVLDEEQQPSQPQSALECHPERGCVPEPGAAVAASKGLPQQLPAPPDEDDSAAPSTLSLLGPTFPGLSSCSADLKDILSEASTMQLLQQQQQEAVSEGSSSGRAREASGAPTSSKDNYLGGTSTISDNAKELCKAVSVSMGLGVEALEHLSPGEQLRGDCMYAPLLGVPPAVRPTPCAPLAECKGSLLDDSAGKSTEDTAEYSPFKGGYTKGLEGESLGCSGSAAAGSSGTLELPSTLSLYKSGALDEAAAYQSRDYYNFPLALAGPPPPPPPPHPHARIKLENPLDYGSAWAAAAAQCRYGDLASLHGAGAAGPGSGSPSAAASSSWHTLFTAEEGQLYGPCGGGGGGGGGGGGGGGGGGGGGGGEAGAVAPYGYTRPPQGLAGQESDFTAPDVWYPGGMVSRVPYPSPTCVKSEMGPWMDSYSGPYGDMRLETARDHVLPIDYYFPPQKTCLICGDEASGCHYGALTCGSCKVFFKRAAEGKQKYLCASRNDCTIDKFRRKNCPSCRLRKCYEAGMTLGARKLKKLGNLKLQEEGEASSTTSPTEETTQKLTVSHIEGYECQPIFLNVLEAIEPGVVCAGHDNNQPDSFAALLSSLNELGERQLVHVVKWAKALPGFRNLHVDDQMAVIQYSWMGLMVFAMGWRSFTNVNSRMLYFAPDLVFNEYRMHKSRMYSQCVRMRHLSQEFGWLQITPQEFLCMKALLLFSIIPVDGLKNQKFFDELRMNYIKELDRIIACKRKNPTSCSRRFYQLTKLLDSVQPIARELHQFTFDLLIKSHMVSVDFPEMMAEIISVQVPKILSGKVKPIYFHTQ
Method in brief: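 Baculovirus/Sf9-expressed hAR extract incubated with hydroxylapatite, 1 nM 3H-DHT and decreasing compound concentrations for 1 h at 4 °C, then washed three times to remove unbound tracer. Bound 3H-DHT compared with no-competitor maximum; affinity given as concentration inhibiting half of maximum binding, mean of multiple tests.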

androgen receptor = biological target: T2, androgen receptor (Homo sapiens, UniProt P10275); assay: AR antagonist cell assay (MDA-MB453-MMTV clone 54-19 luciferase reporter, 100 pM DHT); format: cell-based
T2 sequence (P10275 1-920 Q868H): T1 sequence (P10275 1-920) with Q868H
Experimental: The compounds ability to antagonize the effects of androgen on the androgen receptor were determined in a whole cell assay as described immediately below.
Experimental Procedure for AR Antagonist Cell Assay
This cell line is a stable transfected cell line with MDA-MB453 cell background (a human breast tumor cell line expressing androgen receptor). A MMTV minimal promoter containing ARE was first cloned in front of a firefly luciferase reporter gene. Then the cascade was cloned into transfection vector pUV120puro. […] Puromycin resistant stable cell line was selected. Cell Culture Media and Reagents:
Plating medium: DMEM (phenol red free), 10% charcoal treated HyClone serum, 1% L-glutamine
Assay medium: DMEM (phenol red free), 1% charcoal treated HyClone serum, 1% L-glutamine, and 1% penicillin/streptomycin
• 1. Cells are maintained in culture medium, splitting cells when they reach 80-90% confluence • 2. To test compounds, 10,000 cells/well are plated to opaque 96 cell culture plate in 100 ul/well plating medium, culture for overnight at 37° C. in cell culture incubator • 3. […] Add 10 ul/well freshly prepared DHT (final concentration at 100 pM) to each well, incubate at 37° C. for 17 hr (overnight) • 5.
The results are reported as the mean of multiple tests as described below (the numbers of tests are indicated in the footnote). N.D. denotes that the compound was not tested.

[2] = MDA-MB453-MMTV clone 54-19, inhibition of 100 pM DHT induction, 17 hr; mean of multiple tests; read-out: AR Cell IC50
[3] = read-out: AR Cell IC50; MDA-MB453-MMTV clone 54-19, inhibition of 100 pM DHT induction, 17 hr; mean of multiple tests

| SMILES | IC50 ([1]; read-out: AR Binding IC50) [nM] | IC50 (androgen receptor; [2]) [nM] | IC50 ([1]; AR Binding IC50 (nM)) [nM] | IC50 (androgen receptor; [3]) [nM] |
| --- | --- | --- | --- | --- |
| COc1ccccc1CCNC(=O)C(CC(C)C)Oc1ccc(C#N)c(C(F)(F)F)c1 (centres unmarked) [Example 48, 2-(4-Cyano-3-trifluoromethyl-phenoxy)-4-methyl-pentanoic acid-[2-(2-methoxyphenyl)-ethyl]-amide] | 123 | > 1000 | – | – |
| CCCC(Oc1ccc(C#N)c(C(F)(F)F)c1)C(=O)NCc1ccccc1OC (centres unmarked) [Example 41, 2-(4-Cyano-3-trifluoromethyl-phenoxy)-pentanoic acid-2-methoxy-benzylamide] | 171 | 130 | – | – |
| CCCC(Oc1ccc(C#N)c(Cl)c1)C(=O)OCC (centres unmarked) [Example 99, 2-(3-Chloro-4-cyano-phenoxy)-pentanoic acid ethyl ester] | 31 | 749 | – | – |
| COc1ccc(CCNC(=O)C(CC(C)C)Oc2ccc(C#N)c(C(F)(F)F)c2)cc1 (centres unmarked) [Example 9, 2-(4-Cyano-3-trifluoromethyl-phenoxy)-4-methyl-pentanoic acid [2-(4-methoxyphenyl)-ethyl]-amide] | 163 | > 1000 | – | – |
| CC(C)CC(Oc1ccc(C#N)c(C(F)(F)F)c1)C(=O)N(CCO)C(C)C (centres unmarked) [Example 79, 2-(4-Cyano-3-trifluoromethyl-phenoxy)-4-methyl-pentanoic acid (2-hydroxy-ethyl)isopropyl-amide] | 3130 | > 1000 | – | – |
| CCOc1ccccc1CNC(=O)C(CC(C)C)Oc1ccc(C#N)c(C(F)(F)F)c1 (centres unmarked) [Example 36, 2-(4-Cyano-3-trifluoromethyl-phenoxy)-4-methyl-pentanoic acid-2-ethoxy-benzylamide] | 42 | > 1000 | – | – |
| Cc1cccc(CCNC(=O)C(CC(C)C)Oc2ccc(C#N)c(C(F)(F)F)c2)c1 (centres unmarked) [Example 49, 2-(4-Cyano-3-trifluoromethyl-phenoxy)-4-methyl-pentanoic acid-(2-m-tolyl-ethyl)amide] | 75 | > 1000 | – | – |
| COc1ccccc1NC(=O)C(CC(C)C)Oc1ccc(C#N)c(C(F)(F)F)c1 (centres unmarked) [Example 87, 2-(4-Cyano-3-trifluoromethyl-phenoxy)-4-methyl-pentanoic acid (2-methoxy-phenyl)-amide] | 119 | > 1000 | – | – |
| CCSCCNC(=O)C(CC(C)C)Oc1ccc(C#N)c(C(F)(F)F)c1 (centres unmarked) [Example 114, 2-(4-Cyano-3-trifluoromethyl-phenoxy)-4-methyl-pentanoic acid (2-ethyl sulfanyl-ethyl)-amide] | 102 | 727 | – | – |
| CC(C)CC(Oc1ccc(C#N)c(C(F)(F)F)c1)C(=O)NCc1ccc(O)c(O)c1 (centres unmarked) [Example 74, 2-(4-Cyano-3-trifluoromethyl-phenoxy)-4-methyl-pentanoic acid-3,4-dihydroxy-benzylamide] | 139 | 976 | – | – |
| CC(C)CC(Oc1ccc(C#N)c(C(F)(F)F)c1)C(=O)NCc1ccco1 (centres unmarked) [Example 11, 2-(4-Cyano-3-trifluoromethyl-phenoxy)-4-methyl-pentanoic acid (furan-2-yl-methyl)-amide] | 172 | > 1000 | – | – |
| CC(C)CC(Oc1ccc(C#N)c(C(F)(F)F)c1)C(=O)NC1CCc2ccccc21 (centres unmarked) [Example 54, 2-(4-Cyano-3-trifluoromethyl-phenoxy)-4-methyl-pentanoic acid indan-1-yl-amide] | 70 | 836 | – | – |
| CC(C)CC(Oc1ccc(C#N)c(C(F)(F)F)c1)C(=O)NCC1CC1 (centres unmarked) [Example 7, 2-(4-Cyano-3-trifluoromethyl-phenoxy)-4-methyl-pentanoic acid cyclopropylmethyl-amide] | 107 | 661 | – | – |
| CCCCC(Oc1ccc(C#N)c(C(F)(F)F)c1)C(=O)NCc1ccccc1 (centres unmarked) [Example 91, 2-(4-Cyano-3-trifluoromethyl-phenoxy)-hexanoic acid benzylamide] | 70 | 535 | – | – |
| CCC[C@@H](Oc1ccc(C#N)c(C(F)(F)F)c1)C(=O)NCc1ccccc1 [Example 95, (R)-2-(4-Cyano-3-trifluoromethyl-phenoxy)-pentanoic acid benzylamide] | – | 32 | 126 | – |
| CCC[C@H](Oc1ccc(C#N)c(Cl)c1)C(=O)NCCc1ccc(O)cc1 [Example 105, (S)-2-(3-Chloro-4-cyano-phenoxy)-pentanoic acid [2-(4-hydroxy-phenyl)ethyl]amide] | 241 | – | – | 88 |
| CCCC(Oc1ccc(C#N)c(C(F)(F)F)c1)C(=O)NCCOc1ccccc1 (centres unmarked) [Example 56, 2-(4-Cyano-3-trifluoromethyl-phenoxy)-pentanoic acid-(2-phenoxy-ethyl)-amide] | 157 | 790 | – | – |
| CC(C)C[C@@H](Oc1ccc(C#N)c(C(F)(F)F)c1)C(=O)NCCc1ccc(O)cc1 [Example 111] | 148 | 164 | – | – |
| CC(C)CC(Oc1ccc(C#N)c(C(F)(F)F)c1)C(=O)NCCCc1cccnc1 (centres unmarked) [Example 62, 2-(4-Cyano-3-trifluoromethyl-phenoxy)-4-methyl-pentanoic acid-(3-pyridin-3-ylpropyl)-amide] | 192 | > 1000 | – | – |
| CCCC(Oc1ccc(C#N)c(C(F)(F)F)c1)C(=O)N[C@@H](C)c1ccc(O)cc1 (stereo in doubt) [Example 118, 2-(4-Cyano-3-trifluoromethyl-phenoxy)-pentanoic acid [1-(4-hydroxy-phenyl)-ethyl]-amide] | 1010 | 589 | – | – |
| CC(C)CC(Oc1ccc(C#N)c(C(F)(F)F)c1)C(=O)NCC(C)Oc1ccccc1 (centres unmarked) [Example 53, 2-(4-Cyano-3-trifluoromethyl-phenoxy)-4-methyl-pentanoic acid-(2-phenoxypropyl)-amide] | 59 | 299 | – | – |
| CCCC(Oc1ccc(C#N)c(C(F)(F)F)c1)C(=O)NCCc1c[nH]c2ccc(OC)cc12 (centres unmarked) [Example 97, 2-(4-Cyano-3-trifluoromethyl-phenoxy)-pentanoic acid [2-(5-methoxy-1H-indol-3-yl)-ethyl]-amide] | 111 | – | – | 26 |
